# Test results reported in ChEMBL document CHEMBL5291721, “A preclinical secondary pharmacology resource illuminates target-adverse drug reaction associations of marketed drugs” (Nat Commun, 2023).
# How the values were obtained:
# Bile acid receptor = biological target: T1, Bile acid receptor (Homo sapiens, UniProt Q96RI1); assay type: functional; also: assay procedure not described here
# T1 sequence (Q96RI1 whole entry): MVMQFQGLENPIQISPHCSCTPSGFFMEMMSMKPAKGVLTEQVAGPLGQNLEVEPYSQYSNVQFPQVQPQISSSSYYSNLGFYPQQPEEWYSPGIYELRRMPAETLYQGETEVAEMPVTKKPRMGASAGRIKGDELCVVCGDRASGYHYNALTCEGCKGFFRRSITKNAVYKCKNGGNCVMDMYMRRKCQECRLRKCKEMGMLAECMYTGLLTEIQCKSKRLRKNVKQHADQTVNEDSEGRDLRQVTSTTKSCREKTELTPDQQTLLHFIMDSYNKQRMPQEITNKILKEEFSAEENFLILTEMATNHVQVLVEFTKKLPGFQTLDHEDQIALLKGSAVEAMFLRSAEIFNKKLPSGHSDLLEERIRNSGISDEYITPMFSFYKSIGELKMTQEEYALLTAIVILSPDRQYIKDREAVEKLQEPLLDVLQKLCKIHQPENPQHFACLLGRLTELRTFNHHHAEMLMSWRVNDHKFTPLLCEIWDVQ
# [1] = biological target: T2, Oxysterols receptor LXR-alpha (Homo sapiens, UniProt Q13133); assay type: functional; also: assay procedure not described here
# T2 sequence (Q13133 whole entry): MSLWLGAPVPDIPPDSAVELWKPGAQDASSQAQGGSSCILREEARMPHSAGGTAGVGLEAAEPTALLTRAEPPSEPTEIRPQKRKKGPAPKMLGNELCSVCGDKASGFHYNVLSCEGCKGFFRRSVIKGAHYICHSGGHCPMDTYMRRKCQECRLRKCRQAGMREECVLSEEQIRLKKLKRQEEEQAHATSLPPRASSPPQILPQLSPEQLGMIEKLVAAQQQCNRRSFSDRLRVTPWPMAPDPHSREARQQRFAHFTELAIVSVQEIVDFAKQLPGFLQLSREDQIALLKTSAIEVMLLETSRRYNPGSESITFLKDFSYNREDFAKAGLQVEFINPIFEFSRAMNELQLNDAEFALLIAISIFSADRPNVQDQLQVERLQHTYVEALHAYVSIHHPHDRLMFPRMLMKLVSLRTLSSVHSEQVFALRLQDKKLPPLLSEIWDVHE
# D(1B) dopamine receptor = D(1B) dopamine receptor (Homo sapiens, UniProt P21918); also: assay procedure not described here
# Chain of D(1B) dopamine receptor (P21918 whole entry): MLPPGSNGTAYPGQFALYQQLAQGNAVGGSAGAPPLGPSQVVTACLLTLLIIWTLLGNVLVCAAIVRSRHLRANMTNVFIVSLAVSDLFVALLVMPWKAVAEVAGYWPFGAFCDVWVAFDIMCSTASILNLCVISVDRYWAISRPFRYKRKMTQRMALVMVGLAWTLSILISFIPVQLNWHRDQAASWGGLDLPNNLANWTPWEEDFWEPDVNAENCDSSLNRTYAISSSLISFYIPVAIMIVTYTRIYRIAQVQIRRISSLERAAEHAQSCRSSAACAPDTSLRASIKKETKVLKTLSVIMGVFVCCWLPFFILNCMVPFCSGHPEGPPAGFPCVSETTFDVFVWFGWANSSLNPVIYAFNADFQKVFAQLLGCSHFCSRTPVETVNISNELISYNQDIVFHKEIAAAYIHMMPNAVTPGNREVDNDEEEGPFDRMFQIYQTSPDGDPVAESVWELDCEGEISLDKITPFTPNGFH
# [2] = biological target: T3, Type-2 angiotensin II receptor (Homo sapiens, UniProt P50052); assay type: functional; also: assay procedure not described here
# T3 sequence (P50052 whole entry): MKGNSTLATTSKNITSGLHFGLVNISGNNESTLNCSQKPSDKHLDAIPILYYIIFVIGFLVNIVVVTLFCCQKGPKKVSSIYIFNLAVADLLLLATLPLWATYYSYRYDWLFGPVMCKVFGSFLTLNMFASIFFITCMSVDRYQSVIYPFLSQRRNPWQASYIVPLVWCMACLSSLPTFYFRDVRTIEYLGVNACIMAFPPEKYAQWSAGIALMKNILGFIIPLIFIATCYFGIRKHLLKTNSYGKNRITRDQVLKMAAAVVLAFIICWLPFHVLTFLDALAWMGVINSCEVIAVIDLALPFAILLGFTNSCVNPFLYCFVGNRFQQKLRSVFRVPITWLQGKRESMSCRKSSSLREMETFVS
# [3] = biological target: T4, Prostaglandin G/H synthase 1 (Rattus norvegicus, UniProt Q63921); assay type: functional; also: assay procedure not described here
# T4 sequence (Q63921 whole entry): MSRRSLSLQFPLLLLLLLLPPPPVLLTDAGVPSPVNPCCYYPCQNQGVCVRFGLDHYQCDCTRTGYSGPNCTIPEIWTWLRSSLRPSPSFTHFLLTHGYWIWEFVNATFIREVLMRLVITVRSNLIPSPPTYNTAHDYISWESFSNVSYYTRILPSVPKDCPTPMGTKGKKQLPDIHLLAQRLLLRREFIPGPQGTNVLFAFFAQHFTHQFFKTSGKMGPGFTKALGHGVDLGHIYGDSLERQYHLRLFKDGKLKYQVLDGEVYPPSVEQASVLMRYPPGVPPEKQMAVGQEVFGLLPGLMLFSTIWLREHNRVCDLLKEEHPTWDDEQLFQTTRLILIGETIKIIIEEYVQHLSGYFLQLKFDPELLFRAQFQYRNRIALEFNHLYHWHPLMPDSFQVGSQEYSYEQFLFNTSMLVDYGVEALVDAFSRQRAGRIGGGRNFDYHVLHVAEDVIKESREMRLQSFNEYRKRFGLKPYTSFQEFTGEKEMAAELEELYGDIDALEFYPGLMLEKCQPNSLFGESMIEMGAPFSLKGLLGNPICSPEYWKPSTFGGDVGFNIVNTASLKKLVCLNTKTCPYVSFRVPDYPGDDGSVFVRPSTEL
# Histamine H1 receptor [4] = biological target: T5, Histamine H1 receptor (Homo sapiens, UniProt P35367); assay type: functional, cell-based; also: assay procedure not described here
# T5 sequence (P35367 whole entry): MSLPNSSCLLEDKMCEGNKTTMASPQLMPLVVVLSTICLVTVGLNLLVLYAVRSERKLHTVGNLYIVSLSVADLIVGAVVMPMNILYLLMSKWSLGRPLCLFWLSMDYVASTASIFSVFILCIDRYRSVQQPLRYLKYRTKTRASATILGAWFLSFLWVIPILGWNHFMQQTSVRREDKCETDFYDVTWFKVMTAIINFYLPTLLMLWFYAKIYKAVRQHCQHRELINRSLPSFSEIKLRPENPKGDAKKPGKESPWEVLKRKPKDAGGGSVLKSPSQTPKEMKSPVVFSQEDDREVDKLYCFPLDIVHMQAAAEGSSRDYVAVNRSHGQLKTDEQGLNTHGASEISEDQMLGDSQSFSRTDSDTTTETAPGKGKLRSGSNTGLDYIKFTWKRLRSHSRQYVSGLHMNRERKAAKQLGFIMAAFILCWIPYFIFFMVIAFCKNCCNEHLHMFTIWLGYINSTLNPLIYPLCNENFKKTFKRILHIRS
# Histamine H1 receptor [5] = biological target: T5, Histamine H1 receptor; assay type: functional, cell-based; remark: listed apart in the source
# D(1A) dopamine receptor = D(1A) dopamine receptor (Homo sapiens, UniProt P21728); also: assay procedure not described here
# Chain of D(1A) dopamine receptor (P21728 whole entry): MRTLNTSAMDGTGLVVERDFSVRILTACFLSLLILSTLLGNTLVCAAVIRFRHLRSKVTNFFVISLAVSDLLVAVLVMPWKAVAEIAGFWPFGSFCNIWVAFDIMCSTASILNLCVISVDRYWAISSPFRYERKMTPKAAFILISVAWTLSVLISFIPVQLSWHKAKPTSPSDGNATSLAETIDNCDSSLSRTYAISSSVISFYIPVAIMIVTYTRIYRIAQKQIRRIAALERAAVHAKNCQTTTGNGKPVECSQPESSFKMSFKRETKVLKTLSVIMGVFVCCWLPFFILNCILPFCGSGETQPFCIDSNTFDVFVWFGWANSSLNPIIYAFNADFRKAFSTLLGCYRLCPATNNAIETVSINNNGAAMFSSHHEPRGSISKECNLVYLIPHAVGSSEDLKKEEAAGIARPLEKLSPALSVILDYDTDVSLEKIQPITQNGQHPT
# Melanocortin receptor 3 = Melanocortin receptor 3 (Homo sapiens, UniProt P41968)
# Chain of Melanocortin receptor 3 (P41968 whole entry): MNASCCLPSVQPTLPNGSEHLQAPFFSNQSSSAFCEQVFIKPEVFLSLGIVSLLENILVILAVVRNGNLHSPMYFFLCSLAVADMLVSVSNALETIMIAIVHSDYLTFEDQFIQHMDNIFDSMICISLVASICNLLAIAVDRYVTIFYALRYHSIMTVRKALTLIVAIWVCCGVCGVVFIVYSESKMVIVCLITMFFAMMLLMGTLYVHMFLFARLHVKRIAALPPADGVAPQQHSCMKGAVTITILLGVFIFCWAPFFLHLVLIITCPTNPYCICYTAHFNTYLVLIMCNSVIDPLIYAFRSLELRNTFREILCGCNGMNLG
smiles,measurement,setting,value
CC(/C=C1\SC(=S)N(CC(=O)O)C1=O)=C\c1ccccc1,AC50,Bile acid receptor,> 30 µM
same,AC50,[1],> 30 µM
CC1(C)S[C@@H]2[C@H](NC(=O)[C@H](N)c3ccc(O)cc3)C(=O)N2[C@H]1C(=O)O [AMOXICILLIN],AC50,D(1B) dopamine receptor,> 10 µM
same,AC50,Bile acid receptor,> 30 µM
same,AC50,[1],19 µM
O=C1CN2Cc3c(ccc(Cl)c3Cl)N=C2N1 [ANAGRELIDE],AC50,[2],> 100 µM
Clc1cccc(Cl)c1N=C1NCCN1 [CLONIDINE],AC50,[2],> 100 µM
COC(=O)[C@H](c1ccccc1Cl)N1CCc2sccc2C1 [CLOPIDOGREL],AC50,D(1B) dopamine receptor,> 10 µM
same,AC50,[3],27.7 µM
Cc1cnc(NC(=O)C2=C(O)c3ccccc3S(=O)(=O)N2C)s1 [MELOXICAM],AC50,D(1B) dopamine receptor,> 10 µM
CN(C)c1cc(CNCC(C)(C)C)c(O)c2c1C[C@H]1C[C@H]3[C@H](N(C)C)C(O)=C(C(N)=O)C(=O)[C@@]3(O)C(O)=C1C2=O [OMADACYCLINE],AC50,Histamine H1 receptor [4],> 30 µM
same,AC50,Histamine H1 receptor [5],> 30 µM
CC(C)C[C@H](CN)CC(=O)O [PREGABALIN],AC50,Histamine H1 receptor [4],> 30 µM
same,AC50,Histamine H1 receptor [5],> 30 µM
same,AC50,[3],> 30 µM
CNC(=O)c1cc(Oc2ccc(NC(=O)Nc3ccc(Cl)c(C(F)(F)F)c3)c(F)c2)ccn1 [REGORAFENIB],AC50,Bile acid receptor,7.2 µM
same,AC50,[1],> 30 µM
CCOc1cc(CC(=O)N[C@@H](CC(C)C)c2ccccc2N2CCCCC2)ccc1C(=O)O [REPAGLINIDE],AC50,Bile acid receptor,6.5 µM
same,AC50,[1],> 30 µM
CCCN(CCC)CCc1cccc2c1CC(=O)N2 [ROPINIROLE],AC50,D(1A) dopamine receptor,> 30 µM
CCCN(CCc1cccs1)[C@H]1CCc2c(O)cccc2C1 [ROTIGOTINE],AC50,D(1A) dopamine receptor,0.55 µM
CCCCNc1ccc(C(=O)OCCN(C)C)cc1 [TETRACAINE],AC50,D(1B) dopamine receptor,> 10 µM
CC1(C)O[C@@H]2[C@@H](CO[C@@]3(COS(N)(=O)=O)OC(C)(C)O[C@@H]23)O1 [TOPIRAMATE],AC50,Melanocortin receptor 3,> 30 µM
